Each molecule was assayed against CB1 (CNR1) (Homo sapiens, UniProt P21554) (assay: cAMP CNR1 Hunter cell line antagonist assay (CB1 assay)). Conditions: antagonist mode, cAMP CNR1 Hunter cells, EC80 agonist; read-out: CB1 assay, Efficacy (IC50).
Chain of CB1 (CNR1) (P21554 whole entry): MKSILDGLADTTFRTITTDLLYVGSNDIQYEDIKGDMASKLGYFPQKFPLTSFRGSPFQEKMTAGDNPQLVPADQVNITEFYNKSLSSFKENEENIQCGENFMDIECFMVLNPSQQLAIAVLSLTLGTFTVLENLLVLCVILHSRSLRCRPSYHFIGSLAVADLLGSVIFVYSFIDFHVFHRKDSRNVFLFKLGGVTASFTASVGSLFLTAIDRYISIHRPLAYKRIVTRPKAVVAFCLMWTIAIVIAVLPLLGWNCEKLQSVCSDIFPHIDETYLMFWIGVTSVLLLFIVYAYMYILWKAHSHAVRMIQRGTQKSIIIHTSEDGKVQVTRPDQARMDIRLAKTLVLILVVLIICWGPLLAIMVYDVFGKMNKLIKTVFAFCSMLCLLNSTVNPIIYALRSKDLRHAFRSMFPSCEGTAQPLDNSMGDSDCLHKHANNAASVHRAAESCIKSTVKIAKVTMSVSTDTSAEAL
Type: cell-based
Method in brief: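 Antagonist mode in CNR1 Hunter cells: compound preincubated 30 min at 37 °C, then EC80 agonist for 30 min at 37 °C. cAMP measured by enzyme-fragment complementation chemiluminescence after lysis (1 h) and detection (3 h, room temperature); IC50 fitted from the dose response.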
`O=C1COc2c(cc(Br)cc2S(=O)(=O)Nc2ccc(F)c(F)c2)N1` [BC19177] was tested, and the IC50 was 1 to 25 µM. `CC(C)(C)C1CCC(NS(=O)(=O)c2cc(Br)cc3c2OCC(=O)N3)CC1` (centres unmarked) [BC19380] showed an IC50 of no less than 25 µM. `COc1ccc(NS(=O)(=O)c2cc3c(cc2Cl)NC(=O)C(C)O3)cc1` (centres unmarked) [BC19706] showed an IC50 of no less than 25 µM. Work on `O=C1COc2c(cc(Cl)cc2S(=O)(=O)Nc2ccccc2)N1` [BC19168] yielded an IC50 of 1 to 25 µM. With `CCC1Oc2cc(S(=O)(=O)NC3CCC(O)CC3)c(Br)cc2NC1=O` (centres unmarked) [BC19372] the IC50 was no less than 25 µM. Molecule `CC(C)c1ccc(NS(=O)(=O)c2cc(Br)cc3c2OCCNC3=O)cc1` [BC19605] has an IC50 of no less than 25 µM. `CC1Oc2c(cc(Br)cc2S(=O)(=O)Nc2cccc(Cl)c2)N(C)C1=O` (centres unmarked) [BC19904] showed an IC50 of 1 to 25 µM. For `CCC1Oc2cc(S(=O)(=O)Nc3ccc(OC)cc3)c(Br)cc2N(C)C1=O` (centres unmarked) [BC19936], the IC50 was no less than 25 µM. For `COc1ccc(NS(=O)(=O)c2cc3c(cc2Br)N(C)C(=O)C(C)O3)cc1` (centres unmarked) [BC19795], the IC50 was no less than 25 µM. Molecule `CS(=O)(=O)c1cc2c(c(S(=O)(=O)Nc3ccc(F)c(F)c3)c1)OCC(=O)N2` [BC19481] has an IC50 of no less than 25 µM. For `CC(C)c1ccc(NS(=O)(=O)c2cc(Br)cc3c2OCCC(=O)N3)cc1` [BC19687], the IC50 was no less than 25 µM. `Cc1ccc(NS(=O)(=O)c2cc3c(cc2Cl)NC(=O)C(C)O3)cc1` (centres unmarked) [BC19717] showed an IC50 of no less than 25 µM. With `O=C1COc2cc(S(=O)(=O)Nc3ccc(OC(F)(F)F)cc3)c(Cl)cc2N1` [BC19164] the IC50 was less than 1 µM. Molecule `Cc1ccc(NS(=O)(=O)c2cc(S(C)(=O)=O)cc3c2OCC(=O)N3)cc1` [BC19488] has an IC50 of no less than 25 µM. Molecule `CCc1cccc(NS(=O)(=O)c2cc3c(cc2Br)NC(=O)CCO3)c1` [BC19657] has an IC50 of no less than 25 µM. `CC1Oc2cc(S(=O)(=O)NCc3ccc(F)cc3F)c(Br)cc2NC1=O` (centres unmarked) [BC19356] showed an IC50 of no less than 25 µM. `O=C1NCCOc2c1cc(Br)cc2S(=O)(=O)Nc1ccc(F)cc1Cl` [BC19613] was tested, and the IC50 was no less than 25 µM. Work on `CC1Oc2c(cc(Br)cc2S(=O)(=O)Nc2ccccc2)N(C)C1=O` (centres unmarked) [BC19789] yielded an IC50 of no less than 25 µM. Molecule `O=C1COc2cc(S(=O)(=O)NCCc3ccc(OC(F)(F)F)cc3)c(Br)cc2N1` [BC19387] has an IC50 of no less than 25 µM. `CCC1Oc2cc(S(=O)(=O)Nc3ccc(C)cc3)c(Cl)cc2NC1=O` (centres unmarked) [BC19753] showed an IC50 of 1 to 25 µM. Molecule `CCC1Oc2cc(S(=O)(=O)Nc3ccc(F)cc3)c(Cl)cc2NC1=O` (centres unmarked) [BC19731] has an IC50 of 1 to 25 µM. `CCc1cccc(NS(=O)(=O)c2cc(S(=O)(=O)CC)cc3c2OCC(=O)N3)c1` [BC19439] was tested, and the IC50 was no less than 25 µM. `CC1Oc2cc(S(=O)(=O)Nc3ccc(C(C)C)cc3)c(Cl)cc2NC1=O` (centres unmarked) [BC19704] gave an IC50 of no less than 25 µM.
